Here are results for 31 compounds from US8975399B2, “Benzenesulfon amide-compound treatment of a pathological condition linked to an excessive effect of TNF” (priority 2010, dated 2015).

The target of this experiment is T1, human TNF-alpha (Homo sapiens, UniProt P01375).
T1 construct: purchased R & D Diagnostics
The experiment is described as follows: Apoptosis induced by human TNF-alpha on murine L929 cells (MTT survival). In kind it is cell-based. The settings on record: compound 10 μM, human TNF-alpha 0.150 ng/ml, 24 hours, % survival based on control cells without TNF. The method, then:
The compounds are dissolved in DMSO to be used in vitro or in vivo by oral route, and in Cremophor® for their use in vivo by intraperitoneal route.
The cells were cultured in DMEM medium with 10% fcetal calf serum added. 4×10^4 cells in 100 μl of culture medium were exposed to human TNF-alpha (R & D Diagnostics) at 0.150 ng/ml for 24 hours in 96-well plates, and the tested compound was added at a final concentration of 100 μM or 10 μM. A solution of MTT dye was added (100 μl at 0.5 mg/ml) to each well over two hours in order to measure cell survival. The absorbance was measured at 570 nm using a BMG Fluostar microplate reader. The inhibitory activity of the products was expressed as a calculated % survival based on the control cells without the addition of TNF.

T1 sequence (P01375 77-233 limits assumed): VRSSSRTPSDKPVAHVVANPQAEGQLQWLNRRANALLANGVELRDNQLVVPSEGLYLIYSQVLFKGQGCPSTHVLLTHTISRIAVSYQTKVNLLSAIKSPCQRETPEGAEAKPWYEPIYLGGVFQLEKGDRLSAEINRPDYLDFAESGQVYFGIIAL

Regarding “3-(4-fluorophenyl)-4-oxo-4H-chromen-7-ylN-[(4-methylphenyl)sulphonyl]-beta-alaninate [Compound 24]”, the “% Inhibition 10 μM” value stood at 50.26%.

Consider `CCOc1ccc(S(=O)(=O)Nc2cc3c(C(C)=O)c(C)oc3c3ccccc23)cc1` [16 (1), N-(3-acetyl-2-methylnaphthho[1,2-b]furan-5-yl)-4-ethoxybenzene sulphonamide], for which the “% Inhibition 10 μM” value was 80.40%.

On to `COc1ccc(S(=O)(=O)N(CC(=O)N2CCN(c3ccccc3OC)CC2)Cc2ccccc2)cc1C` [32 (3), N-benzyl-4-methoxy-N-{2-[4-(2-methoxyphenyl)-1-piperazinyl]-2-oxoethyl}-3-methylbenzenesulphonamide], for which the “% Inhibition 10 μM” value is 69.73%.

With `COc1ccccc1N1CCN(C(=O)CN(Cc2ccccc2)S(=O)(=O)c2ccc(Cl)cc2)CC1` [66 (14), N-benzyl-4-chloro-N-{2-[4-(2-methoxyphenyl)-1-piperazinyl]-2-oxoethyl}benzenesulphonamide], the “% Inhibition 10 μM” value came to 67.4%.

In the case of `COc1ccccc1N1CCN(C(=O)CN(Cc2ccccc2)S(=O)(=O)c2ccc(Br)cc2)CC1` [67 (15), N-benzyl-4-bromo-N-{2-[4-(2-methoxyphenyl)-1-piperazinyl]-2-oxoethyl}benzenesulphonamide], the “% Inhibition 10 μM” value is reported as 61.8%.

For the compound `Cc1ccc(S(=O)(=O)N(CC(=O)N2CCN(Cc3ccccc3)CC2)c2ccc(C)c(C)c2)cc1` [72 (21), N-[2-(4-benzyl-1-piperazinyl)-2-oxoethyl]-N-(3,4-dimethylphenyl)-4-methylbenzenesulphonamide], the “% Inhibition 10 μM” value worked out at 53.4%.

With `Cc1c(Cl)cccc1N(CC(=O)N1CCN(Cc2ccccc2)CC1)S(=O)(=O)c1ccccc1` [73 (23), N-[2-(4-benzyl-1-piperazinyl)-2-oxoethyl]-N-(3-chloro-2-methylphenyl)benzenesulphonamide], the “% Inhibition 10 μM” value came out at 44.8%.

Consider `COc1ccc(S(=O)(=O)Nc2cc3c(C(C)=O)c(C)oc3cc2C)cc1` [Compound 1, N-(3-acetyl-2,6-dimethyl-1-benzofuran-5-yl)-4-methoxybenzene sulphonamide], for which the “% Inhibition 10 μM” value was 71.15%.

On to `COC(=O)c1c(C)oc2ccc(NS(=O)(=O)c3ccc(OC)cc3)cc12` [Compound 2, methyl 5-{[(4-methoxyphenyl)sulphonyl]amino}-2-methyl-1-benzofuran-3-carboxylate], for which the “% Inhibition 10 μM” value was determined as 57.51%.

For the compound `COC(=O)c1c(C)oc2ccc(NS(=O)(=O)c3ccc(C)cc3)cc12` [Compound 3, methyl 2-methyl-5-{[(4-methylphenyl)sulphonyl]amino}-1-benzofuran-3-carboxylate], the “% Inhibition 10 μM” value is reported as 48.09%.

For `Cc1ccc(-c2nnc(NCc3ccccc3)c3ccccc23)cc1S(=O)(=O)NCC1CCCO1` (stereo not shown) [Compound 23, 5-[4-(benzylamino)-1-phthalazinyl]-2-methyl-N-(tetrahydro-2-furanylmethyl)benzenesulphonamide], the “% Inhibition 10 μM” value was determined as 44.74%.

As to `COc1ccc(NC(=O)CN(Cc2cccc(Cl)c2)S(=O)(=O)c2ccc(C)cc2)c(OC)c1` [Compound 33, N˜2˜-(3-chlorobenzyl)-N˜1˜-(2,4-dimethoxyphenyl)-N˜2˜-[(4-methylphenyl)sulphonyl]glycinamide], the “% Inhibition 10 μM” value stood at 52.4%.

In the case of `COc1ccc(OC)c(N(CC(=O)Nc2cccc(C(C)=O)c2)S(=O)(=O)c2ccc(C)cc2)c1` [Compound 34, N˜1˜-(3-acetylphenyl)-N-˜2˜-(2,5-dimethoxyphenyl)-N˜2˜-[(4-methylphenyl)sulphonyl]glycinamide], the “% Inhibition 10 μM” value was 42.26%.

In the case of `COc1ccccc1N1CCN(C(=O)CN(Cc2ccc(F)cc2)S(=O)(=O)c2ccc(Cl)cc2)CC1` [Compound 71, 4-chloro-N-(4-fluorobenzyl)-N-{2-[4-(2-methoxyphenyl)-1-piperazinyl]-2-oxoethyl}benzenesulphonamide], the “% Inhibition 10 μM” value was determined as 53.6%.

As to `CC1CCN(C(=O)CN(Cc2ccc(Cl)c(Cl)c2)S(=O)(=O)c2ccc(Cl)cc2)CC1` [Compound 74, 4-chloro-N-(3,4-dichlorobenzyl)-N-[2-(4-methyl-1-piperidinyl)-2-oxoethyl]benzenesulphonamide], the “% Inhibition 10 μM” value is listed as 45.6%.

With `COc1ccccc1N1CCN(C(=O)CN(Cc2ccccc2)S(=O)(=O)c2ccc(F)cc2)CC1` [Compound 75, N-benzyl-4-fluoro-N-{2-[4-(2-methoxyphenyl)-1-piperazinyl]-2-oxoethyl}benzenesulphonamide], the “% Inhibition 10 μM” value is listed as 44.7%.

Regarding `Cc1ccc(S(=O)(=O)N(CC(=O)N2CCN(Cc3ccccc3)CC2)c2cc(C)cc(C)c2)cc1` [Compound 76, N-[2-(4-benzyl-1-piperazinyl)-2-oxoethyl]-N-(3,5-dimethylphenyl)-4-methylbenzenesulphonamide], the “% Inhibition 10 μM” value is on record as 35.5%.

Consider `COc1ccc(S(=O)(=O)N(CC(=O)N2CCN(c3ccccc3F)CC2)Cc2ccccc2)cc1` [Compound 77, N-benzyl-N-{2-[4-(2-fluorophenyl)-1-piperazinyl]-2-oxoethyl}-4-methoxybenzenesulphonamide], for which the “% Inhibition 10 μM” value is reported as 32.8%.

In the case of `COc1ccc(S(=O)(=O)N(CC(=O)N2CCc3ccccc3C2)c2cc(C)cc(C)c2)cc1OC` [Compound 78, N-[2-(3,4-dihydro-2(1H)-isoquinolinyl)-2-oxoethyl]-N-(3,5-dimethylphenyl)-3,4-d imethoxybenzenesulphonamide], the “% Inhibition 10 μM” value was 38.4%.

Turning to `COc1ccc(S(=O)(=O)N(CC(=O)N2CCN(c3ccccc3)CC2)c2ccc(C)cc2)cc1OC` [Compound 79, 3,4-dimethoxy-N-(4-methylphenyl)-N-[2-oxo-2-(4-phenyl-1-piperazinyl)ethyl]benzenesulphonamide], the “% Inhibition 10 μM” value is listed as 36.8%.

Consider `Cc1ccc(CN(CC(=O)N2CCN(c3ccc(F)cc3)CC2)S(=O)(=O)c2ccccc2)cc1` [Compound 80, N-{2-[4-(4-fluorophenyl)-1-piperazinyl]-2-oxoethyl}-N-(4-methylbenzyl)benzenesulphonamide], for which the “% Inhibition 10 μM” value amounted to 34.3%.

For the compound `Cc1ccc(S(=O)(=O)N(CC(=O)N2CCC(Cc3ccccc3)CC2)c2ccc(F)cc2)cc1` [Compound 81, N-[2-(4-benzyl-1-piperidinyl)-2-oxoethyl]-N-(4-fluorophenyl)-4-methylbenzenesulphonamide], the “% Inhibition 10 μM” value is on record as 34.8%.

For `Cc1ccc(S(=O)(=O)N(CC(=O)N2CCN(Cc3ccccc3)CC2)c2ccccc2C)cc1` [Compound 82, N-[2-(4-benzyl-1-piperazinyl)-2-oxoethyl]-4-methyl-N-(2-methylphenyl)benzenesulphonamide], the “% Inhibition 10 μM” value is listed as 34.6%.

With `COc1ccc(S(=O)(=O)N(CC(=O)N2CCN(c3ccc(F)cc3)CC2)Cc2ccccc2)cc1OC` [Compound 84, N-benzyl-N-{2-[4-(4-fluorophenyl)-1-piperazinyl]-2-oxoethyl}-3,4-dimethoxybenzenesulphonamide], the “% Inhibition 10 μM” value was determined as 33.6%.

Turning to “N-(1,2-dihydro-5-acenaphthhylenyl)-2.4,6-trimethylbenzenesulphonamide [Compound 26]”, the “% Inhibition 10 μM” value is recorded as 43.84%.

With “N-(1′,2-dihydroxy-1.2′-binaphthhalen-4′-yl)-4-methoxybenzene-sulphonamide [Compound 21]”, the “% Inhibition 10 μM” value stood at 53.45%.

Take “N-[2-(4-benzyl-1-piperazinyl)-2-oxoethyl]-N-(3-chlorophenyl)-4-methyl benzenesulphonamide [65 (13)]”: the “% Inhibition 10 μM” value is 61.4%.

For the compound “N-[2-(4-benzyl-1-piperazinyl)-2-oxoethyl]-N-(4-chlorophenyl)-4-methyl benzenesulphonamide [68 (16)]”, the “% Inhibition 10 μM” value was 56.2%.

Take “N-benzyl-4-methyl-N-[2-oxo-2-(4-phenyl-1-piperazinyl)pethyl]benzenesulphonamide [69 (18)]”: the “% Inhibition 10 μM” value is 61.3%.

With “N-{2-[4-(2-fluorophenyl)-1-piperazinyl]-2-oxoethyl}-N-(4-methylbenzyl) benzenesulphonamide [70 (19)]”, the “% Inhibition 10 μM” value turned out to be 54.0%.

Consider “N-{2-[4-(diphenylmethyl)-1-piperazinyl]-2-oxoethyl}-N,4-dimethyl benzenesulphonamide [Compound 85]”, for which the “% Inhibition 10 μM” value was 32.1%.
